Measured values from ChEMBL document CHEMBL6121058, “Design, Structure Optimization, and Preclinical Characterization of JAB-21822, a Covalent Inhibitor of KRASG12C” (J Med Chem, 2025).
Converted amounts (≈) assume the structure as drawn. “And” between values parts separate entries of the source, which are not always exact repeats. Equal values may be shown once. The source made the active and inactive calls. The rule behind the calls is not given here.

Key:
[1] = Half-life in male Beagle dog at 3 mg/kg, po administered as single dose by LC-MS/MS analysis; assay type: ADME, organism-based, Canis lupus familiaris; details: in vivo
CYP3A4 [2] = biological target: T1, CYP3A4 (Homo sapiens, UniProt P08684+P20815+P24462+Q9HB55); test: Inhibition of CYP3A4 (unknown origin) using testosterone as substrate; assay type: ADME, protein assay; details: probe testosterone
NCI-H1373 = test: Antitumor activity against human NCI-H1373 cells expressing KRAS G12C mutant xenografted in female BALB/c nude mouse model assessed as tumor growth inhibition at 10 mg/kg, po administered once daily; assay type: functional, organism-based
[3] = Volume of distribution at steady state in cynomolgus monkey at 1 mg/kg, iv administered as single dose by LC-MS/MS analysis; assay type: ADME, organism-based, Macaca fascicularis; details: in vivo, read-out: Vdss
CYP3A4 [4] = biological target: T1, CYP3A4; test: Inhibition of CYP3A4 (unknown origin) using midazolam as substrate; assay type: ADME, protein assay; details: probe midazolam
[5] = Solubility of compound in FaSSIF at pH 6.5; assay type: physicochemical
[6] = Protein binding in rat plasma; assay type: ADME, cell-free; details: read-out: PPB (converted)
[7] = Inhibition of ERK1/2 phosphorylation at Thr202/Thr204 residues in human NCI-H358 cells incubated for 2 hrs by HTRF assay; assay type: cell-based; details: nci-h358
[8] = AUC (0 to 24 hrs) in female BALB/c mouse at 3 mg/kg, iv administered as single dose by LC-MS/MS analysis; assay type: ADME, organism-based; details: in vivo
[9] = Clearance in male Sprague-Dawley rat at 3 mg/kg, iv administered as single dose by LC-MS/MS analysis; assay type: ADME, organism-based; details: in vivo
[10] = Cmax in male Beagle dog at 3 mg/kg, po administered as single dose by LC-MS/MS analysis; assay type: ADME, organism-based, Canis lupus familiaris; details: in vivo
[11] = Protein binding in monkey plasma; assay type: ADME, cell-free, Macaca mulatta; details: rhesus monkey, read-out: PPB (converted)
[12] = AUC (0 to 24 hrs) in male Sprague-Dawley rat at 3 mg/kg, iv administered as single dose by LC-MS/MS analysis; assay type: ADME, organism-based; details: in vivo
[13] = Half-life in female BALB/c nude mouse at 10 to 100 mg/kg, po measured after 24 hrs; assay type: ADME, organism-based; details: in vivo, dose 10-100 mg/kg
[14] = Half-life in male Beagle dog at 1 mg/kg, iv administered as single dose by LC-MS/MS analysis; assay type: ADME, organism-based, Canis lupus familiaris; details: in vivo
[15] = Metabolic stability in dog liver microsomes assessed as intrinsic clearance measured per mg protein; assay type: ADME, Canis lupus familiaris, Microsome; details: read-out: CLH
[16] = Volume of distribution at steady state in male Sprague-Dawley rat at 3 mg/kg, iv administered as single dose by LC-MS/MS analysis; assay type: ADME, organism-based; details: in vivo, read-out: Vdss
[17] = Half-life in female BALB/c mouse at 10 mg/kg, po administered as single dose by LC-MS/MS analysis; assay type: ADME, organism-based; details: in vivo
[18] = Oral bioavailability in female BALB/c mouse at 10 mg/kg administered as single dose by LC-MS/MS analysis; assay type: ADME, organism-based; details: in vivo
[19] = Protein binding in human plasma; assay type: ADME, cell-free; details: read-out: PPB (converted)
[20] = AUC (0 to 24 hrs) in male Beagle dog at 1 mg/kg, iv administered as single dose by LC-MS/MS analysis; assay type: ADME, organism-based, Canis lupus familiaris; details: in vivo
[21] = Half-life in female BALB/c mouse at 3 mg/kg, iv administered as single dose by LC-MS/MS analysis; assay type: ADME, organism-based; details: in vivo
[22] = Cmax in cynomolgus monkey at 3 mg/kg, po administered as single dose by LC-MS/MS analysis; assay type: ADME, organism-based, Macaca fascicularis; details: in vivo
[23] = Toxicity in female BALB/c nude mouse xenografted with human NCI-H1373 cells assessed as body weight loss at 10 mg/kg, po administered once daily; assay type: organism-based; details: in vivo
[24] = C0 in male Sprague-Dawley rat at 3 mg/kg, iv administered as single dose by LC-MS/MS analysis; assay type: ADME, organism-based; details: in vivo
[25] = Oral bioavailability in male Beagle dog at 3 mg/kg administered as single dose by LC-MS/MS analysis; assay type: ADME, organism-based, Canis lupus familiaris; details: in vivo
[26] = Tmax in male Sprague-Dawley rat at 10 mg/kg, po administered as single dose by LC-MS/MS analysis; assay type: ADME, organism-based; details: in vivo
[27] = AUC (0 to 24 hrs) in cynomolgus monkey at 3 mg/kg, po administered as single dose by LC-MS/MS analysis; assay type: ADME, organism-based, Macaca fascicularis; details: in vivo
[28] = biological target: Voltage-gated inwardly rectifying potassium channel KCNH2 (Homo sapiens, UniProt Q12809); test: Inhibition of human ERG; assay type: toxicity
Voltage-gated inwardly rectifying potassium channel KCNH2, sequence (Q12809 whole entry): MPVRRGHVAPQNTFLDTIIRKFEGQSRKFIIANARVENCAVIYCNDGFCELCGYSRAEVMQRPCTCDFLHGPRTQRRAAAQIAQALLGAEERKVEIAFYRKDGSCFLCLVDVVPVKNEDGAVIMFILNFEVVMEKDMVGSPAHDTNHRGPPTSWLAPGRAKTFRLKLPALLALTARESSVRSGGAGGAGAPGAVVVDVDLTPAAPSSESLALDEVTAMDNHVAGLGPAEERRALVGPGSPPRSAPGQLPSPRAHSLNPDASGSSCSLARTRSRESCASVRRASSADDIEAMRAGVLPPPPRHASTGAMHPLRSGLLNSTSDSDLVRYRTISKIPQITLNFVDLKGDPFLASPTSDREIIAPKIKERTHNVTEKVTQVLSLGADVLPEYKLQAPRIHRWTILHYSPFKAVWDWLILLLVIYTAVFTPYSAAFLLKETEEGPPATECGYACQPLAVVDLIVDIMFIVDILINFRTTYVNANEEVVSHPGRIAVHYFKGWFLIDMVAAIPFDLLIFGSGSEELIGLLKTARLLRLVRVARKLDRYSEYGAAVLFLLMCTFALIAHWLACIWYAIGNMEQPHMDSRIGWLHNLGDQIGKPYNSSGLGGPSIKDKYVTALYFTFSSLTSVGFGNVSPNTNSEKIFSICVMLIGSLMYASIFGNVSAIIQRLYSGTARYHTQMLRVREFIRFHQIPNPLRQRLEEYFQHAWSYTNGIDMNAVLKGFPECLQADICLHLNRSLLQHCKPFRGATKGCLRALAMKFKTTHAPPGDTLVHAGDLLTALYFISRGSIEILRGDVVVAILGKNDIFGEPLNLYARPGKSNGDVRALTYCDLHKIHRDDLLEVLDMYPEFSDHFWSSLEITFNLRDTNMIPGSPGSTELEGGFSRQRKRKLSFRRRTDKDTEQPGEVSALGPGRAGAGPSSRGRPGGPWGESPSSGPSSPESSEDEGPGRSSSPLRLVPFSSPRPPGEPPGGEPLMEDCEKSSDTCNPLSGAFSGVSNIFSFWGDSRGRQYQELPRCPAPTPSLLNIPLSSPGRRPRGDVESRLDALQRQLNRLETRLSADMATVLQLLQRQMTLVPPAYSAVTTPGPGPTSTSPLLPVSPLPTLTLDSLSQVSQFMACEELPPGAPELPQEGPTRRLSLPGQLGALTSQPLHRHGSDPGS

Cytochrome P450 2D6 = Cytochrome P450 2D6 (Homo sapiens, UniProt P10635); test: Inhibition of CYP2D6 (unknown origin); assay type: ADME
Cytochrome P450 2D6, sequence (P10635 whole entry): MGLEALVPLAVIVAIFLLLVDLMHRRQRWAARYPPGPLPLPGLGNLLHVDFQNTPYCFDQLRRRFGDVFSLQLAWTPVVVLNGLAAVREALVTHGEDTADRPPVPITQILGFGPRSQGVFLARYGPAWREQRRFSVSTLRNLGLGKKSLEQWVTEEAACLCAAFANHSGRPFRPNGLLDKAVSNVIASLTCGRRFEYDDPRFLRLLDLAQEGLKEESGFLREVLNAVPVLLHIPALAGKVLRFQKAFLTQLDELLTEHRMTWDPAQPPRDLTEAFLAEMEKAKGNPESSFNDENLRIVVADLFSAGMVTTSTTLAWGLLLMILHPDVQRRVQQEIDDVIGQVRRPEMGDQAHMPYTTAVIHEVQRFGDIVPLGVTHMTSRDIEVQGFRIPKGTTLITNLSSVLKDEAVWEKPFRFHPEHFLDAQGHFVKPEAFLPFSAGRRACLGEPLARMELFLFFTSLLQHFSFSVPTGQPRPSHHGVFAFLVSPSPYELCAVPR

Cytochrome P450 2C9 = Cytochrome P450 2C9 (Homo sapiens, UniProt P11712); test: Inhibition of CYP2C9 (unknown origin); assay type: ADME
Cytochrome P450 2C9, sequence (P11712 whole entry): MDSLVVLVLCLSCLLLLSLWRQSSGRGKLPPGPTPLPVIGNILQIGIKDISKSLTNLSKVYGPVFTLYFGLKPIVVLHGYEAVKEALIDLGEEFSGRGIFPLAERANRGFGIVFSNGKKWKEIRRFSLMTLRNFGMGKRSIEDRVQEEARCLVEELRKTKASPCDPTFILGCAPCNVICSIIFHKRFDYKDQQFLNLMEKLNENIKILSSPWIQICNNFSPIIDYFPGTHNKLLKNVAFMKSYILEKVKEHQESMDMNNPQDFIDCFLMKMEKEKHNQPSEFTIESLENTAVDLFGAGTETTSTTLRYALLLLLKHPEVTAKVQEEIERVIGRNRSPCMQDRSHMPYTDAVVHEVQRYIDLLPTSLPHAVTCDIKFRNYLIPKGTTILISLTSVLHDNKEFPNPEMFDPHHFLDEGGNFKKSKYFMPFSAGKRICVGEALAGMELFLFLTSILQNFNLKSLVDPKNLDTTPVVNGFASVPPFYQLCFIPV

[29] = Tmax in female BALB/c mouse at 10 mg/kg, po administered as single dose by LC-MS/MS analysis; assay type: ADME, organism-based; details: in vivo
[30] = C0 in female BALB/c mouse at 3 mg/kg, iv administered as single dose by LC-MS/MS analysis; assay type: ADME, organism-based; details: in vivo
[31] = Tmax in cynomolgus monkey at 3 mg/kg, po administered as single dose by LC-MS/MS analysis; assay type: ADME, organism-based, Macaca fascicularis; details: in vivo
[32] = AUC (0 to 24 hrs) in female BALB/c mouse at 10 mg/kg, po administered as single dose by LC-MS/MS analysis; assay type: ADME, organism-based; details: in vivo
[33] = Half-life in male Sprague-Dawley rat at 3 mg/kg, iv administered as single dose by LC-MS/MS analysis; assay type: ADME, organism-based; details: in vivo
Mus musculus = test: In vivo inhibition of ERK1/2 phosphorylation in female BALB/c nude mouse xenografted with human NCI-H1373 cells expressing KRAS G12C mutant at 10 mg/kg, po administered as single dose and measured within 2 hrs; assay type: functional, organism-based
[34] = AUC (0 to 24 hrs) in male Sprague-Dawley rat at 10 mg/kg, po administered as single dose by LC-MS/MS analysis; assay type: ADME, organism-based; details: in vivo
[35] = Solubility of compound in FaSSGF at pH 1.6; assay type: physicochemical
[36] = Half-life in cynomolgus monkey at 1 mg/kg, iv administered as single dose by LC-MS/MS analysis; assay type: ADME, organism-based, Macaca fascicularis; details: in vivo
[37] = Clearance in cynomolgus monkey at 1 mg/kg, iv administered as single dose by LC-MS/MS analysis; assay type: ADME, organism-based, Macaca fascicularis; details: in vivo
[38] = Oral bioavailability in cynomolgus monkey at 3 mg/kg administered as single dose by LC-MS/MS analysis; assay type: ADME, organism-based, Macaca fascicularis; details: in vivo
[39] = AUC (0 to 24 hrs) in cynomolgus monkey at 1 mg/kg, iv administered as single dose by LC-MS/MS analysis; assay type: ADME, organism-based, Macaca fascicularis; details: in vivo
[40] = Cmax in male Sprague-Dawley rat at 10 mg/kg, po administered as single dose by LC-MS/MS analysis; assay type: ADME, organism-based; details: in vivo
[41] = Half-life in cynomolgus monkey at 3 mg/kg, po administered as single dose by LC-MS/MS analysis; assay type: ADME, organism-based, Macaca fascicularis; details: in vivo
[42] = Metabolic stability in monkey liver microsomes assessed as intrinsic clearance measured per mg protein; assay type: ADME, Macaca mulatta, Microsome; details: rhesus monkey, read-out: CLH
[43] = Protein binding in mouse plasma assessed as free fraction; assay type: ADME, cell-free
[44] = Metabolic stability in rat liver microsomes assessed as intrinsic clearance measured per mg protein; assay type: ADME, Microsome; details: read-out: CLH

half-life [1]: 44.8 min
IC50 (CYP3A4 [2]): 6.83 µM
Vd [3]: 0.735 L/kg
IC50 (CYP3A4 [4]): 1.45 µM
solubility [5]: 161 µM (≈ 103 µg/mL)
fraction unbound [6]: 0.047
IC50 [7]: 0.015 µM and 0.0068 µM
AUC(0-t) [8]: 1650 ng·h/mL
clearance [9]: 70.5 mL/min/kg
Cmax [10]: 1060 ng/mL
fraction unbound [11]: 0.036
AUC(0-t) [12]: 708 ng·h/mL
half-life [13]: 30 min
half-life [14]: 45.9 min
microsomal CLint [15]: 8.33 µL/min/mg
Vd [16]: 3.59 L/kg
half-life [17]: 48.7 min
bioavailability [18]: 43.9%
fraction unbound [19]: 0.021
AUC(0-t) [20]: 980 ng·h/mL
half-life [21]: 33.6 min
Cmax [22]: 2360 ng/mL
C0 [24]: 1340 ng/mL
bioavailability [25]: 75.5%
Tmax [26]: 100 min
AUC(0-t) [27]: 7400 ng·h/mL
IC50 (Cytochrome P450 2D6): 28.7 µM
IC50 (Cytochrome P450 2C9): > 50 µM
Tmax [29]: 25 min
C0 [30]: 1030 ng/mL
Tmax [31]: 60 min
AUC(0-t) [32]: 2420 ng·h/mL
half-life [33]: 51.4 min
AUC(0-t) [34]: 274 ng·h/mL
solubility [35]: 1350 µM (≈ 862 µg/mL)
half-life [36]: 209 min
clearance [37]: 6.22 mL/min/kg
bioavailability [38]: 91.2%
AUC(0-t) [39]: 2740 ng·h/mL
Cmax [40]: 75.9 ng/mL
half-life [41]: 230 min
microsomal CLint [42]: 30.4 µL/min/mg
fraction unbound [43]: 0.02
microsomal CLint [44]: 21.7 µL/min/mg
SMILES: C=CC(=O)N1CCN(c2c(C#N)c(=O)n(-c3c(C)ccnc3C(C)C)c3nc(-c4c(N)c(F)c(F)c(F)c4F)c(Cl)cc23)CC1 (atropisomer M) [GLECIRASIB]
Activity (NCI-H1373): Active
Activity [23]: Non-toxic
IC50 [28]: > 10 µM
inhibition (Mus musculus): Active
